The values below come from a melting point compilation (Tetko et al.; mined from patent text by program, amines drawn as free bases though some values may be those of a salt).

As to `NS(=O)(=O)c1nc2ccc(OC(=O)Cc3ccc(Cl)cc3)cc2s1`, the melting point is 206 to 208 °C.
Compound `CC(=O)C(Cc1cc(O)c(O)c([N+](=O)[O-])c1)C(C)=O` registered a melting point of 118 to 128 °C.
For `Clc1cccc(N2CCN(CCCc3nnn[nH]3)CC2)c1` the value was 162 to 164 °C.
Regarding `COc1ccc(CN(C)CCc2ccc(NC(=O)c3cccc4c(=O)c5cccc([N+](=O)[O-])c5[nH]c34)cc2)cc1OC`, the melting point stood at 197 °C.
`C=C(Br)n1ccnc1[N+](=O)[O-]`: the melting point lay in the range of 80 to 82 °C.
Turning to `O=c1ccn(-c2ccccc2Cl)nc1-c1ccnn1-c1ccccc1`, the melting point lay within 138 to 139 °C.
`c1ccc2c(c1)ccn2Nc1ncnc2c1ncn2-n1ccc2ccccc21` yielded a melting point of 196 to 198 °C.
`COc1cc(OC)c(OC)cc1C=C1CCc2c1oc1ccc(C(=O)O)cc1c2=O` had a melting point of 311 to 313 °C.
For `CCCn1c(=O)c2c(NC)n[nH]c2n(Cc2ccccc2Cl)c1=O` the value was > 300 °C; for `COC(=O)[C@H](c1ccccc1Cl)N1CCc2sc(OC(C)=O)cc2C1`, 73 to 75 °C.
Regarding `COc1cc(N)c(Cl)cc1C(=O)NCC1CCN(CCCSc2ccccc2)CC1`, the melting point lay in the range of 146 to 148 °C.
`O=C(Cl)C=Cc1c(Cl)cccc1Cl` returned a melting point of 64.5 to 66 °C.
Take `COc1cccc(CNC(=O)c2nc3scc(CCOc4ccc(C(=O)O)cc4)c3c(=O)[nH]2)c1`: the melting point lay within 237 to 241 °C.
On to `O=C(NCCO)c1cccc(-c2cc3c(ccn3Cc3ccc(Cl)cc3Cl)cn2)c1`, for which the melting point was 198 to 199 °C.
For `Cc1[nH]c2ccccc2c1Cc1ccncc1` the value was 126 to 127 °C; for `CC(C)(C)c1cc(CN2CCN(c3ccc(N)cc3)CC2)cc(C(C)(C)C)c1O`, 152 to 154 °C; for `Cc1cccc(N2CCN([C@@H](Cc3ccc(OCCc4nc(-c5ccccc5)oc4C)cc3)C(=O)O)CC2)c1`, 205 to 207 °C.
The compound `COc1ccc(SCc2c(C(C)C)nc(C(C)C)c(CO)c2-c2ccc(F)cc2)cc1` showed a melting point of 92 to 93 °C.
In turn, `CCOC(=O)C=C(C)Nc1ccc(OC)c(OC)c1` came in with a melting point of 57 to 58 °C.
As to `O=C(O)Cc1c(Cl)nc(-c2ccccc2)n1Cc1ccccc1F`, the melting point was 144 to 146 °C.
In turn, `O=C(O)Cc1c(C(=O)c2cccc(F)c2)[nH]c2cc(Cl)ccc12` yielded a melting point of 278 to 281 °C.
For the compound `N#CCCn1[nH]c(C#N)cc1=O`, the melting point fell in the range of 162 to 164 °C.
`Cc1cccc(-c2ccccc2)c1NC(=N)N(C)C`: the melting point lay within 144 to 145 °C.
The compound `N#CC(C#N)=CN(N=C(C#N)C#N)c1cccc(Cl)c1` yielded a melting point of 113 to 115 °C.
For `CCOC(=O)C(CCCc1ccccc1CP(=O)(OCC)OCC)(NC(C)=O)C(=O)OCC`, the melting point was 76 to 79 °C.
On to `CC(C)NC1=NS(=O)(=O)c2cc(Br)cc(Br)c2N1`, for which the melting point was 306 to 311 °C.
As to `O=C(CN1c2nc(-c3ccncc3)cc(=O)n2CCC12CC2)c1ccccc1`, the melting point lay in the range of 232 to 234 °C.
In turn, `COc1ccc2c(=O)sc(C(=O)O)cc2c1` registered a melting point of 278 to 279 °C.
On to `Cc1cc(C(=O)NCCc2ccc(CCC(=O)O)cc2)n[nH]1`, for which the melting point fell in the range of 202 to 205 °C.
For `COc1ccc2[nH]c(S(=O)Cc3ncnc(N4CCCCC4)c3C)nc2c1` (centres undefined), the melting point lay within 87 to 89 °C.
In turn, `CCOCCn1c(N2CCCN(CCC3(c4ccc(Cl)cc4)CCN(C(=O)c4cc(OC)c(OC)c(OC)c4)C3)CC2)nc2ccccc21` (centres undefined) showed a melting point of 74 to 81 °C.
For the compound `Nc1ncnc2c1c(-c1cccc(O)c1)cn2C1CC(CN2CCCC2)C1` (centres undefined), the melting point was 193 to 194 °C.
`COC(=O)CCC1(CCC(=O)OC)CCC(=O)N1` came in with a melting point of 70 to 73 °C.
For the compound `Oc1cc2c(cc1CCCCc1ccccc1)OC(CCc1ccccc1)C2` (centres undefined), the melting point lay within 50 to 53 °C.
In turn, `COC1SC=C(C)NC1=O` (centres undefined) gave a melting point of 157 to 160 °C.
As to `CC(=O)Nc1ccc(Oc2ccc3nc(COc4ccc(CC5SC(=O)NC5=O)cc4)n(C)c3c2)cc1` (centres undefined), the melting point was in the range of 92.2 to 95 °C.
As for `CCOC(=O)c1cn(C2CC2)c2c(F)c(F)c(F)c(C)c2c1=O`, the melting point is 176 to 177 °C.
On to `CNC(=O)n1nc(Oc2c(Cl)cc(C(F)(F)F)cc2[N+](=O)[O-])cc1C`, for which the melting point was 140 to 142 °C.
`CSC1C(=O)Nc2c(OCc3ccccc3)cccc21` (centres undefined) yielded a melting point of 127 to 129 °C.
For `COc1cccc2c1C(NC1=Nc3ccc(Nc4nnc(C)o4)cc3CO1)CC2` (centres undefined) the value was 162 °C.
On to `Cc1nc(C)c(-c2cccc(OC3SCC(O)C(O)C3O)c2)s1` (centres undefined), for which the melting point was in the range of 158 to 164 °C.
As to `COc1cc(C)c(C(=O)c2c(Cl)cccc2Cl)cc1OC(C)(C)C`, the melting point came out at 102 °C.
The compound `O=C(CBr)C(O)(CBr)c1ccc(F)cc1` (centres undefined) registered a melting point of 90 °C.
Compound `CCCc1nc2c(ccc3[nH]c4cnc(C(=O)OC(C)C)c(C)c4c32)o1` displayed a melting point of 223 to 224 °C.
In the case of `CN1CCC(c2c[nH]c3ccc(SCc4ccccc4)cc23)CC1`, the melting point lay within 138 to 141 °C.
With `CC(=O)OCc1ccc(N)cc1`, the melting point lay within 83 to 84 °C.
For `Nc1nc(Cl)c(C2=NCCN2)c(Cl)n1`, the melting point is 197 to 198 °C.
`CC(C)(C)c1cc(SCc2ccc(-c3nnn[nH]3)cc2)cc(C(C)(C)C)c1` gave a melting point of 187 to 189 °C.
Compound `COCCOCOc1c(C(C)(C)C)nc(C=NO)nc1C(C)(C)C` gave a melting point of 90 to 97 °C.
Compound `COc1cc(Nc2c(C#N)cnc3cc(I)ccc23)c(Cl)cc1Cl` gave a melting point of 243 to 245 °C.
For `CN1C(=S)N(c2ccc(C#N)c(C(F)(F)F)c2)C(=O)C12CCCC2` the value was 162 to 163 °C; for `OC1CCN(c2ncc(-c3ccc(Cl)cc3)cn2)CC1`, 168 to 170 °C; for `COc1cccc(C(=O)Nc2nc(C)c(C(=O)NCc3ccccc3)s2)c1`, 75 to 77 °C.
With `CC(=O)NCCCNc1ccc(NCCN(C)C)c2c1C(=O)c1ccccc1C2=O`, the melting point is 193 to 194 °C.
For `CC(C)(C)OC(=O)Nc1cc(N2CC3OC(C)(C)OC3C2)c(-c2ccc(F)cc2)cc1[N+](=O)[O-]` (centres undefined) the value was 119 °C.
`CNc1nc2ccccc2n2cnnc12`: the melting point is > 300 °C.
In turn, `CN1CC(C(=O)N(C)CCCc2ccc(Cl)c(Cl)c2)=C(O)C1=O` had a melting point of 138 to 140 °C.
`CCCCCCc1cc2c(cc1OCCCC(=O)O)C(=O)C(C)(C)C2` came in with a melting point of 82 °C.
`Oc1ccc2nc(-c3ccc(O)c4ccccc34)oc2c1`: the melting point lay within 194 to 196 °C.
For `COc1ccc(Nc2nc(-c3ccccc3)cc(N3CCC(OC(=O)CCC(=O)O)CC3)n2)cc1Cl` the value was 218 to 220 °C.
Compound `CCOc1cc(C(=CC#N)c2ccc3c(c2)nnn3C)ccc1OC` registered a melting point of 180 to 182 °C.
For `Cc1c(CC(C)(C)C(=O)O)n(Cc2ccc(Cl)cc2)c2ccc(OCc3ccc4ccccc4c3)cc12` the value was 152 °C; for `CC(=O)Nc1cnn2c(C)nc3ccccc3c12`, 258 to 260 °C.
Take `C#CCOc1ccc(NCc2ccccc2)c(C(=O)c2ccc(C3CC3)cc2)c1`: the melting point is 116 to 118 °C.
Take `COc1cc2c(c(OC(C)=O)c1)C1CCC3(C)C(OC(C)=O)=CCC3C1CC2` (centres undefined): the melting point is 118 °C.
For `CCOP(=O)(CC(=O)Nc1c(C(C)C)cccc1C(C)C)OCC` the value was 119 to 120 °C; for `O=C(c1ccc(Cl)cc1)c1ccccc1N=C=S`, 162 to 166 °C.
Consider `Cc1cc(-c2cc(C(F)(F)F)n3ncc(-c4nc(-c5ccc(S(N)(=O)=O)cc5)no4)c3n2)ccc1C(F)(F)F`, for which the melting point was found to be 273 °C.
For `CCc1c(-c2ccc(O)cc2)c2cc(C(C)=O)c3cc(O)cc1n32` the value was 274 to 275 °C; for `O=[N+]([O-])C[C@@H](O)[C@H](O)[C@@H](O)[C@@H](O)CO`, 89 to 91 °C; for `O=C(O)COc1cc(-c2c3ccccc3c(Br)c3sc4ccccc4c23)ccc1Br`, 174 to 175 °C.
For `CC(=O)Nc1cnc2cccc(Oc3cc(-c4ccc(C(F)(F)F)cc4)ncn3)c2n1`, the melting point worked out at 237 °C.
In turn, `O=C(O)COc1ccc(SCc2cccc(OCc3ccc(C(F)(F)F)cc3)c2)c2c1CCC2` showed a melting point of 145 to 146 °C.
As to `Clc1ccc(Nc2ccc(Br)cn2)cc1`, the melting point fell in the range of 112 to 116 °C.
In turn, `Cc1ccc(S(=O)(=O)OCC2COc3ccc4c(c3O2)CCO4)cc1` (centres undefined) came in with a melting point of 95 to 96 °C.
For the compound `COCOc1ccccc1-c1cc(-c2cc([N+](=O)[O-])ccc2Cl)c(C#N)c(NC(=O)c2cccs2)n1`, the melting point fell in the range of 208 to 209 °C.
`O=C1CCC(c2ccc(CCCCN3CCN(c4ccc(F)cc4)CC3)cc2)N1` (centres undefined) had a melting point of 136 to 137 °C.
For `CC(C)n1nc(-c2c(-c3ccccc3)nn3ccc(N4CCNCC4)cc23)ccc1=O` the value was 203 to 204 °C; for `COc1cccc(NC(=O)NCc2cccc3c2CN(C2CCC(=O)NC2=O)C3=O)c1` (centres undefined), 340 to 342 °C.
In turn, `Cc1c(C)c(NC(=O)CC(C)(C)C)c2c(c1C)C(c1ccc(C(C)C)cc1)C(C)(C)O2` (centres undefined) came in with a melting point of 152 to 153 °C.
Regarding `c1cc2sccc2cn1`, the melting point was < 50 °C.
For `Cc1cccc(CC(=O)O)c1OCCCc1cc(OC(C)C)nn1Cc1ccc(Cl)cc1Cl`, the melting point is 70 to 71 °C.
Regarding `COc1ccc(Nc2nc(NC(=O)C(C)(C)C)nc3[nH]c4ccccc4c23)cc1`, the melting point lay within 219 to 220 °C.
As for `ClCCCOc1cc(Cl)c(OCCCCl)cc1Cl`, the melting point came out at 162 °C.
With `Clc1cccc2cnsc12`, the melting point lay within 50 to 51 °C.
Turning to `O=C(Nc1ccncc1)c1ccc(OC(F)F)c2oc3ccc(C(F)(F)F)cc3c12`, the melting point worked out at 228 °C.
Compound `N#CC(C(=O)c1ccc(Cl)cc1)c1ccncc1` (centres undefined) had a melting point of 225 to 235 °C.
With `COC(=O)c1ccc(CNC(=O)C2Cc3ccccc3N2S(=O)(=O)c2ccc(-c3ccc(F)cc3)cc2)cc1` (centres undefined), the melting point lay in the range of 66 to 73 °C.
For `COc1ccc(C#N)cc1C(C)(C)C=O`, the melting point is 115 to 117 °C.

The melting point is the temperature, or range, at which the solid turns liquid.
